From article PMC9785169, “New Insights Regarding Hemin Inhibition of the Purified Rat Brain 2-Oxoglutarate Carrier and Relationships with Mitochondrial Dysfunction” (Journal of Clinical Medicine, 2022)

Molecular target: T1, 2-oxoglutarate/malate carrier (OGC) (Rattus norvegicus, UniProt P97700)
T1 construct: gene Slc25a11; OGC purified from rat brain mitochondria, reconstituted into proteoliposomes
T1 sequence (P97700 2-314): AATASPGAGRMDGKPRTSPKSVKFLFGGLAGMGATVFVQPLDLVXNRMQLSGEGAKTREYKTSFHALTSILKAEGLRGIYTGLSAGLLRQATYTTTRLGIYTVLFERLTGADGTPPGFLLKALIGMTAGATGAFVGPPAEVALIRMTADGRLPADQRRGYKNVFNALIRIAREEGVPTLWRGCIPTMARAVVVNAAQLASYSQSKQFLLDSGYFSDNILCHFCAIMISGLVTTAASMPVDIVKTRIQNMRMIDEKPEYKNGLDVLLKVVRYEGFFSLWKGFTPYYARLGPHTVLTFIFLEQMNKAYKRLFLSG
Assay: […]malate uptake inhibition in proteoliposomes reconstituted with purified OGC, internal hemin
Assay type: biochemical

SMILES: C=CC1=C(C)C2=Cc3c(C=C)c(C)c4[n]3[Fe]([Cl])[n]3c(c(C)c(CCC(=O)O)c3=CC3=NC(=C4)C(C)=C3CCC(=O)O)=CC1=N2 [hemin]
- IC50: 82 ± 7 nM
